Nine molecules from patent publication US6933296B2, “Compounds effective as β2-adrenoreceptor agonists as well as PDE4-inhibitors” (Altana Pharma B.V., priority 2000, dated 2005) can be followed below.

The test system of the first series is human eosinophils. Put plainly: Inhibition of C5a-stimulated chemiluminescence in human eosinophils. The class given is cell-based. The note with it: 100 nM C5a, 100 nM salbutamol included as additional cAMP trigger. An excerpt: c) Inhibition of C5a-stimulated Chemiluminescence in Human Eosinophils
Eosinophils were purified essentially as described in detail elsewhere (Hatzelmann A, Tenor H and Schudt C, Differential effects of non-selective and selective phosphodiesterase inhibitors on human eosinophil functions. Brit J Pharmacol 114: 821-831, 1995). Briefly, total granulocytes were first purified from blood (anticoagulated with 0.3% w/v sodium citrate) by dextran sedimentation, centrifugation on Ficoll Paque and hypotonic lysis of remaining red blood cells. For the further purification of the eosinophil fraction the magnetic cell separation (MACS) system from Miltenyi Biotec (Bergisch-Gladbach, Germany) was applied. Eosinophils were separated from neutrophils by negative selection using anti-CD16 microbeads in a two-step protocol using D- and BS-(formerly called B2-) separation columns. By this method human eosinophils with a purity of >99% and a viability of >97% were obtained.
The chemiluminescence (CL) assay was essentially performed as described (Hatzelmann et al., 1995). Briefly, measurements were performed in a “CL-buffer” (140 mM NaCl, 5 mM KCl, 1 mM MgCl2, 10 mM HEPES, pH 7.4) containing 1 mM CaCl2, 1 mg/ml glucose, 0.05% (w/v) BSA, 10 μM luminol and 4 μM microperoxidase (all values correspond to final concentrations in the assays) in a total volume of 0.5 ml at a cell concentration of 10^6 cells/ml. Aliquots (0.4 ml) of the cell suspension (containing luminol and microperoxidase) were preincubated for 5 min at 37° C. in the absence or presence of inhibitors (0.05 ml). Stock solutions of the inhibitors (10 mM) were prepared in DMSO and diluted 1:100 (v/v) in CL-buffer; subsequent dilutions were made in 1% DMSO/CL-buffer to achieve the final drug concentrations in the assays at a DMSO concentration of 0.1% (v/v) which by itself only weakly affected the CL response. […] After preincubation, the assays were transferred into a “Multi-biolumat LB 9505C” from Berthold (Wildbad, Germany) and stimulated by the addition of 0.05 ml C5a (dissolved in CL-buffer; 100 nM final concentration). CL was continuously recorded for 1 min (C5a) and the AUC (area under the curve) calculated. Inhibition of CL by the compounds under these conditions is given as −log IC30 (mol/l).
Turning to “(cis)-2-{4-(2-[{2-(4-amino-3,5-dichlorophenyl)-2-hydroxyethyl}amino]-1-ethyl}phenyl)-4-(3,4-dimethoxyphenyl)-4a,5,8,8a-tetrahydro-2H-phthalazin-1-one hemifumarate [Compound 5]”, the “Inhibition of C5a-stimulated chemiluminescence [-logIC30 (mol/l)]” value is recorded as 6.70 mol/l.

The same series, now with this note: 100 nM final concentration, C5a-stimulated.
As to `CC(C)(C)NCC(O)c1ccc(O)c(CO)c1` (stereo not drawn) [salbutamol, reference compound], the “effect on the CL response by itself” value is “hardly affected the CL response”.

Tested on in a further series: not given
Test: not given
Settings: not given
As usually defined, the melting point is the temperature, or range, at which the solid turns liquid. As for `COc1ccc(C2=NN(c3ccc(OCCNCC(O)c4cc(Cl)c(N)c(Cl)c4)cc3)C(=O)[C@@H]3CC=CC[C@H]23)cc1OC.O=C(O)C(=O)O` (stereo partly drawn), the melting point lay within 136 to 138 °C.

The molecule `COc1ccc(C2=NN(C3CCN(CCS(=O)(=O)CCNCC(O)c4cc(Cl)c(N)c(Cl)c4)CC3)C(=O)[C@@H]3CC=CC[C@H]23)cc1OC.O=C(O)/C=C/C(=O)O` (stereo partly drawn) had a melting point of 137 to 138 °C.

For the molecule `CCOc1ccc(C2=NN(C3CCN(C(=O)CNCC(O)c4cc(Cl)c(N)c(Cl)c4)CC3)C(=O)[C@@H]3CC=CC[C@H]23)cc1OCC.O=C(O)/C=C/C(=O)O` (stereo partly drawn), the melting point was 172 to 173 °C.

For the molecule `COc1ccc(C2=NN(C3CCN(C(=O)[C@H](C)NCC(O)c4cc(N)c(N)c(Cl)c4)CC3)C(=O)[C@@H]3CC=CC[C@H]23)cc1OC.O=C(O)/C=C/C(=O)O` (stereo partly drawn), the melting point is 130 to 131 °C.

`COc1ccc(C2=NN(c3ccc(OCCCCNCC(O)c4ccc(O)c(CO)c4)cc3)C(=O)[C@@H]3CC=CC[C@H]23)cc1OC.O=C(O)/C=C/C(=O)O` (stereo partly drawn) yielded a melting point of 126 to 127 °C.

Turning to `COc1ccc(C2=NN(C3CCN(CCCCCCNCC(O)c4cc(Cl)c(N)c(C#N)c4)CC3)C(=O)[C@@H]3CC=CC[C@H]23)cc1OC.O=C(O)/C=C/C(=O)O` (stereo partly drawn), the melting point lay in the range of 142 to 143 °C.

`COc1ccc(C2=NN(C3CCN(S(=O)(=O)CCNCC(O)c4ccc(O)c(CO)c4)CC3)C(=O)[C@@H]3CC=CC[C@H]23)cc1OC` (stereo partly drawn) [Compound 29, (4aS,8aR)-4-(3,4-Dimethoxy-phenyl)-2-(1-{2-[2-hydroxy-2-(4-hydroxy-3-hydroxymethyl-phenyl)-ethylamino]-ethanesulfonyl}-piperidin-4-yl)-4a,5,8,8a-tetrahydro-2H-phthalazin-1-one] gave a melting point of 97 to 99 °C.
